Literature values in paper PMC7395068, “The evolution of strategies to minimise the risk of human drug-induced liver injury (DILI) in drug discovery and development” (Archives of Toxicology, 2020).
Where a name gives a salt, the structure may show the parent alone. Read-outs that look alike come from different tables or passages of the source.

Legend:
[1] = cited from earlier work
human hepatocytes = conditions: cited from earlier work; for Structural based (HCI), In vitro Assay: human hepatocyte imaging
[2] = cited from earlier work; remark: listed apart in the source
[3] = tested on: THLE or HepG2 cells, isolated mitochondria, BSEP; conditions: In vitro Assay; ref Aleo 2019; cited from earlier work
[4] = assignment in Xu 2008, ref Xu 2008
[5] = binary in vivo human DILI call, ref Chen 2016
[6] = human DILI, LTKB DILIrank category, ref Chen 2016

| SMILES | DILI +VE (5-8), DILI -VE (-4) ([1]; ref Chen 2016) | DILI severity category ([1]; ref Chen 2016) | Structural based (HCI) (human hepatocytes; In vitro Assay, ref Xu 2008) | In vivo DILI ([2]; ref Xu 2008) | further results |
| --- | --- | --- | --- | --- | --- |
| N[C@@H]1C[C@H]1c1ccccc1 (racemic) [tranylcypromine] | – | – | – | – | DILI +VE (5-8), DILI -VE (-4) ([1]; binary in vivo DILI call given beside the severity category, ref Chen 2016): +VE; DILI severity category ([1]; human DILI concern category (LTKB DILIrank), ref Chen 2016): vLess-DILI-Concern; Structural based (HCI), In vitro Assay (human hepatocytes; ref Xu 2008): -VE; In vivo DILI [2, 4]: -VE |
| CC(=O)OCC[N+](C)(C)C [acetylcholine chloride] | -VE | vNo-DILI-Concern | -VE | -VE | – |
| CN/C(=N/CCSCc1nc[nH]c1C)NC#N [cimetidine] | +VE | vLess-DILI-Concern | -VE | -VE | In vivo DILI ([2]; […]): +VE |
| CN(C)CCCC1(c2ccc(F)cc2)OCc2cc(C#N)ccc21 (stereo not shown) [citalopram] | – | – | – | – | DILI +VE (5-8), DILI -VE (-4) ([1]; in vivo): +VE; DILI severity category ([1]; in vivo): vLess-DILI-Concern; Structural based (HCI) (human hepatocytes): -VE; In vivo DILI ([2]; in vivo): -VE |
| Nc1nc(Cl)nc2c1ncn2[C@H]1C[C@H](O)[C@@H](CO)O1 [cladribine] | -VE | Ambiguous DILI-concern | -VE | -VE | – |
| CN1CCC(=C2c3ccccc3C=Cc3ccccc32)CC1 [cyproheptadine] | +VE | vLess-DILI-Concern | +VE | +VE | – |
| CN(C)[C@@H]1C(O)=C(C(N)=O)C(=O)[C@@]2(O)C(O)=C3C(=O)c4c(O)ccc(Cl)c4[C@@H](O)[C@H]3C[C@@H]12 [demeclocycline] | – | – | -VE | +VE | DILI +VE (5-8), DILI -VE (-4) [1, 5]: -VE; DILI severity category [1, 6]: Ambiguous DILI-concern |
| C[C@@H](CO)NC(=O)[C@@H]1C=C2c3cccc4[nH]cc(c34)C[C@H]2N(C)C1 [ergonovine maleate] | – | – | -VE | -VE | – |
| C[C@]12CC[C@@H]3c4ccc(O)cc4CC[C@H]3[C@@H]1CC[C@@H]2O[C@@H]1O[C@H](C(=O)O)[C@@H](O)[C@H](O)[C@H]1O [estradiol 17b glucuronide] | – | – | – | – | Structural based (HCI) (human hepatocytes): -VE; In vivo DILI ([2]; in vivo): +VE |
| COc1cc([C@@H]2c3cc4c(cc3[C@@H](O[C@@H]3O[C@@H]5CO[C@@H](C)O[C@H]5[C@H](O)[C@H]3O)[C@H]3COC(=O)[C@H]23)OCO4)cc(OC)c1O [etoposide] | +VE | vLess-DILI-Concern | -VE | +VE | In vivo DILI ([2]; […]): +VE; In vivo DILI ([2]; ref O'Brien 2006): +VE; In vivo DILI ([2]; ref Persson 2013): +VE; In vivo DILI ([2]; ref Tolosa 2012): +VE |
| N#CC(C#N)=NNc1ccc(OC(F)(F)F)cc1 [fccp] | – | – | +VE | +VE | In vivo DILI ([2]; ref O'Brien 2006): +VE |
| CC(C(=O)O)c1cccc(Oc2ccccc2)c1 (stereo not shown) [fenoprofen sodium] | – | – | +VE | +VE | – |
| CC(Cc1ccc(O)cc1)NCC(O)c1cc(O)cc(O)c1 (stereo not shown) [fenoterol hbr] | – | – | – | – | Structural based (HCI) (human hepatocytes): -VE; In vivo DILI ([2]; in vivo): +VE |
| O=c1[nH]c(=O)n([C@H]2C[C@H](O)[C@@H](CO)O2)cc1F [floxuridine] | – | – | -VE | +VE | In vivo DILI ([2]; […]): +VE |
| CC(=O)OCC(=O)[C@@]1(O)CC[C@H]2[C@@H]3CCC4=CC(=O)CC[C@]4(C)[C@@]3(F)[C@@H](O)C[C@@]21C [fludrocortisone acetate] | – | – | -VE | -VE | Partition Hybrid HRM Score [3]: -VE; Ro2 Hybrid HRM Score [3]: -VE; In vivo DILI ([2]; ref Aleo 2019): -VE |
| NCC1(CC(=O)O)CCCCC1 [gabapentin] | +VE | vLess-DILI-Concern | -VE | -VE | In vivo DILI ([2]; ref Vorrink 2018): -VE |
| O.O=[N+]([O-])[O][Ga]([O][N+](=O)[O-])[O][N+](=O)[O-] [gallium nitrate hydrate] | – | – | – | – | Structural based (HCI), In vitro Assay (human hepatocytes; ref Xu 2008): -VE; In vivo DILI [2, 4]: -VE |
| COc1c(N2CCNC(C)C2)c(F)cc2c(=O)c(C(=O)O)cn(C3CC3)c12 (stereo not shown) [gatifloxacin] | – | – | – | – | Structural based (HCI), In vitro Assay (human hepatocytes; ref Xu 2008): -VE; In vivo DILI [2, 4]: -VE |
| Cc1ccc(C)c(OCCCC(C)(C)C(=O)O)c1 [gemfibrozil] | +VE | vMost-DILI-Concern | +VE | +VE | – |
| NS(=O)(=O)c1cc2c(cc1Cl)NCNS2(=O)=O [hydrochlorothiazide] | – | – | – | – | DILI +VE (5-8), DILI -VE (-4) ([1]; in vivo): +VE; DILI severity category ([1]; in vivo): vLess-DILI-Concern; Structural based (HCI) (human hepatocytes): +VE; In vivo DILI ([2]; in vivo): +VE |
| CC(=O)[C@]1(O)Cc2c(O)c3c(c(O)c2[C@@H](O[C@H]2C[C@H](N)[C@H](O)[C@H](C)O2)C1)C(=O)c1ccccc1C3=O [idarubicin] | – | – | – | – | DILI +VE (5-8), DILI -VE (-4) [1, 5]: -VE; DILI severity category [1, 6]: Ambiguous DILI-concern; Structural based (HCI), In vitro Assay (human hepatocytes; ref Xu 2008): -VE; In vivo DILI [2, 4]: -VE |
| O=c1[nH]c(=O)n([C@H]2C[C@H](O)[C@@H](CO)O2)cc1I [idoxuridine] | – | – | – | – | Structural based (HCI), In vitro Assay (human hepatocytes; ref Xu 2008): -VE; In vivo DILI [2, 4]: +VE |
